Data from US20250326769A1, “HETEROAROMATIC MACROCYCLIC ETHER CHEMOTHERAPEUTIC AGENTS” (Nuvalent, Inc., priority 2022, published 2025).
Like-named read-outs stand apart in the source and are kept apart here.

Experiments:
ALK I1171N/D1203N = ALK I1171N/D1203N (Homo sapiens (Human), UniProt Q9UM73, D1203N/I1171N); test: Biochemical kinase assay, ALK I1171N/D1203N; conditions: apparent inhibitory constant, kinase domain, Morrison equation; read-out: ALK-I1171N-D1203N Ki^app
Procedure: (§1) First, 250 nL of compound dissolved in DMSO (100-fold of the desired concentration) was dispensed into a 384-well plate. A 12.5 μL substrate solution containing ATP (2 mM) and fluorogenic phosphorylation substrate AQT0101 ([…] for ALK and ROS, AssayQuant) or AQT0104 (26 μM for TRKB, AssayQuant) in buffer (50 mM HEPES pH 7.5, […], 0.5 mM EGTA, 10 mM MgCl2) was added and mixed thoroughly. Then, a 12.5 μL kinase solution containing ALK (1.5 nM, Carna, 08-518), ALK I1171N/D1203N (4 nM, SignalChem, custom-made), ROS1 (0.6 nM, Carma, 08-163), ROS1-G2032R (0.5 nM, SignalChem, R14-121BG), or TRKB-wt (1.5 nM, SignalChem, N17-11G) kinase domains in buffer ([…] pH 7.5, 0.01% Brij-[…], 0.4 mg/mL BSA, 0.5 mM EGTA, and 10 mM MgCl2) was added and mixed thoroughly. The plate was sealed and read by SpectraMax Paradigm at λ=485 nm every 2 minutes for 120 minutes at 30° C. Initial rates of reaction (v) were calculated from the change in fluorescence intensity over time during the initial, linear portion of the reaction. Finally, apparent inhibitory constants (Ki^app) were determined from regression of v and I (inhibitor concentration) to Morrison Equation (E=enzyme concentration): […]
(§2) Compound potency can be interpreted by binning Ki^app values against the targets: bin A for high potency, Ki^app<50 nM; bin B for medium potency, 50 nM≤Ki^app<500 nM; and bin C for low potency, Ki^app≥500 nM. […] “nd” means not determined.

TRKB-wt = TRKB-wt (Homo sapiens (Human), UniProt Q16620); test: Biochemical kinase assay, TRKB-wt; conditions: apparent inhibitory constant, kinase domain, Morrison equation; read-out: TRKB-wt Ki^app
TRKB-wt, sequence (Q16620 538-807): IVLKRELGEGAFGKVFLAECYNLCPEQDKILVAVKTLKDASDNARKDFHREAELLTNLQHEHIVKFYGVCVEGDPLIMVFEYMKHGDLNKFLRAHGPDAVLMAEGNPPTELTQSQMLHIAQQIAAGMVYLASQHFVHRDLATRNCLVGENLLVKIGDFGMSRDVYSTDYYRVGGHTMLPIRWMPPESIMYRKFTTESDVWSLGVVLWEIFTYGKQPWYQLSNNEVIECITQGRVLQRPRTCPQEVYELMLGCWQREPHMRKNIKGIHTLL
Outline: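 Kinase domains (in enzyme solution: ALK I1171N/D1203N 4 nM, ROS1 0.6 nM, ROS1-G2032R 0.5 nM, TRKB 1.5 nM) were mixed with substrate solution holding 2 mM ATP and 26 μM AQT0101 (ALK, ROS1) or AQT0104 (TRKB). Initial rates from 120-min fluorescence kinetics at 30 °C were fitted to the Morrison equation (Ki^app).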

Ba/F3 EML4-ALK v1 I1171N = Ba/F3 EML4-ALK v1 I1171N (Homo sapiens (Human), UniProt Q9HC35+Q9UM73, I1171N); test: Ba/F3 cell proliferation assay, EML4-ALK v1 I1171N; format: cell-based; conditions: for IC50: Ba/F3 stable cells, 72 hours, CellTiter-Glo; for ETV6-TRKB / EML4-ALK v1 I1171N: TRKB selectivity, ratio of Ba/F3 IC50 values
Ba/F3 EML4-ALK v1 I1171N, sequence (Q9UM73 other isoform, or with tags, fused parts or gaps I1171N): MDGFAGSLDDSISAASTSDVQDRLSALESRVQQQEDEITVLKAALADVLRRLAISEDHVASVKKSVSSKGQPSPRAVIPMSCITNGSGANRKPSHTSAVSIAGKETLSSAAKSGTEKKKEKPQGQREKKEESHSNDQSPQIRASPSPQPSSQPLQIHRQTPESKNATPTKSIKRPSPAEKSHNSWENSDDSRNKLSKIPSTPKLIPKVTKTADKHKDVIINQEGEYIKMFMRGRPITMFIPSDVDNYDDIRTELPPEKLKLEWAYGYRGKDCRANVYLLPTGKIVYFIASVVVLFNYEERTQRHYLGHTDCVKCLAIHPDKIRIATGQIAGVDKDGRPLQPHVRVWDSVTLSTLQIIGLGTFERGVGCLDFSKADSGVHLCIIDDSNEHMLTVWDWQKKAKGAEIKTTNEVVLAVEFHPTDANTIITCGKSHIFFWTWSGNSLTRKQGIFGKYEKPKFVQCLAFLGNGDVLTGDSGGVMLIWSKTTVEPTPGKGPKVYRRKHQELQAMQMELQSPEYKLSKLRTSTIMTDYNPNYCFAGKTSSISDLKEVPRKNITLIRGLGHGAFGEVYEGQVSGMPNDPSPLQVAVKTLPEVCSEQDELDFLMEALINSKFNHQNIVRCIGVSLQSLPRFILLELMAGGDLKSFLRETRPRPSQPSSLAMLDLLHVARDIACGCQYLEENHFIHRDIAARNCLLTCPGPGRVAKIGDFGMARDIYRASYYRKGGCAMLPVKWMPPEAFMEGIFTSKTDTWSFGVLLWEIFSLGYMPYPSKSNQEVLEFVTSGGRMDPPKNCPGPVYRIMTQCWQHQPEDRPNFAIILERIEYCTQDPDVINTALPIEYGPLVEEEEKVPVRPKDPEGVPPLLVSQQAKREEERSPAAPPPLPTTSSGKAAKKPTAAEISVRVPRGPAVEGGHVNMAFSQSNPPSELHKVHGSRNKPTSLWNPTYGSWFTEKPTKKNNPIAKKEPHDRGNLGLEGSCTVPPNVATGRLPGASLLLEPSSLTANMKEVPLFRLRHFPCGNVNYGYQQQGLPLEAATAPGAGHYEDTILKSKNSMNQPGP
Outline: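 Ba/F3 cells stably transformed with retroviral EML4-ALK v1 I1171N, selected by IL-3 withdrawal and puromycin, grown IL-3-free. Compounds added as 3-fold dilution series, 72 h incubation; viability by CellTiter-Glo luminescence. IC50 from percent inhibition by four-parameter logistic fit, binned A/B/C.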

[1] = target: Ba/F3 EML4-ALK v1 I1171N/D1203N (Homo sapiens (Human), UniProt Q9HC35+Q9UM73, D1203N/I1171N); test: Ba/F3 cell proliferation assay, EML4-ALK v1 I1171N/D1203N; format: cell-based; conditions: for IC50: Ba/F3 stable cells, 72 hours, CellTiter-Glo; for ETV6-TRKB / EML4-ALK v1 I1171N/D1203N: TRKB selectivity, ratio of Ba/F3 IC50 values
Ba/F3 EML4-ALK v1 I1171N/D1203N, sequence (Q9UM73 other isoform, or with tags, fused parts or gaps I1171N/D1203N): as the sequence (Q9UM73 other isoform, or with tags, fused parts or gaps I1171N) above, with D642N counted along it
Outline: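 Viability read by CellTiter-Glo luminescence after 72 h exposure to a 3-fold compound dilution series, with IC50 from four-parameter logistic regression. Cells were Ba/F3 rendered IL-3-independent through retroviral expression of EML4-ALK v1 I1171N/D1203N, puromycin-selected.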

Ba/F3 ETV6-TRKB = Ba/F3 ETV6-TRKB (Homo sapiens, UniProt Q16620); test: Ba/F3 cell proliferation assay, ETV6-TRKB; format: cell-based
Ba/F3 ETV6-TRKB, sequence (Q16620 32-822 limits assumed, change not shown): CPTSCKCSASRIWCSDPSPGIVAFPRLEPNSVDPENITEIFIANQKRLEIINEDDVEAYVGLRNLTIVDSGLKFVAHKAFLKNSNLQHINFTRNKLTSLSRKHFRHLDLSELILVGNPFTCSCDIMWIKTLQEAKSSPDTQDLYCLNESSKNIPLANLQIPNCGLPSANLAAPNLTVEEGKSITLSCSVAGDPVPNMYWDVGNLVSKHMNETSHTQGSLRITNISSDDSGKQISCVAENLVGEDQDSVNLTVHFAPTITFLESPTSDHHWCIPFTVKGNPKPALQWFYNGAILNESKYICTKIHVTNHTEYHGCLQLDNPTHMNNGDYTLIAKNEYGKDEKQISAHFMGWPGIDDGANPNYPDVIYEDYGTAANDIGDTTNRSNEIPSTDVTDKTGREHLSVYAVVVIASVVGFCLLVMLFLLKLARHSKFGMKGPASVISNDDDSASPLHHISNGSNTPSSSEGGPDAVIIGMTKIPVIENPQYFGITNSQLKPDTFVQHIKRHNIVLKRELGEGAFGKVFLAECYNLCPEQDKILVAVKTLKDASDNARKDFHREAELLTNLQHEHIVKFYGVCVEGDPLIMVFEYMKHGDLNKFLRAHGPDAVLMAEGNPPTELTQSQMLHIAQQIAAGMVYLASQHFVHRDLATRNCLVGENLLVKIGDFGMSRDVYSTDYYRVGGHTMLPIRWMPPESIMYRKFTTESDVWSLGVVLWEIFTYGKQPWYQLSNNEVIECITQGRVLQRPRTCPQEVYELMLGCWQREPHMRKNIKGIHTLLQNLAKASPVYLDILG
Outline: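 Growth inhibition after 72 h compound exposure (3-fold series) was measured by CellTiter-Glo in IL-3-independent Ba/F3 cells stably expressing ETV6-TRKB. A four-parameter logistic fit of percent inhibition versus concentration gave IC50.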

ROS1 = ROS1 (Homo sapiens (Human), UniProt P08922); test: Biochemical kinase assay, ROS1-wt; conditions: apparent inhibitory constant, kinase domain, Morrison equation; read-out: ROS1-wt Ki^app
ROS1, sequence (P08922 1945-2222): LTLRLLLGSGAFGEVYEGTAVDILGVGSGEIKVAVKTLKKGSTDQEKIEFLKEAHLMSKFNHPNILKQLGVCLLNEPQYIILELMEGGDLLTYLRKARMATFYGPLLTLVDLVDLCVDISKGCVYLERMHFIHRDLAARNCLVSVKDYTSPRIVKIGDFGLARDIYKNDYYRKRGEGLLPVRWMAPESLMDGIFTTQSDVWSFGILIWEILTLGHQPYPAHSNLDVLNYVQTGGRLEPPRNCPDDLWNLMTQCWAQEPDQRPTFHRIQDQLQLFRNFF
Procedure: as §1, §2

ROS1-G2032R = ROS1-G2032R (Homo sapiens (Human), UniProt P08922, G2032R); test: Biochemical kinase assay, ROS1-G2032R; conditions: apparent inhibitory constant, kinase domain, Morrison equation; read-out: ROS1-G2032R Ki^app
ROS1-G2032R, sequence (P08922 1945-2222 G2032R): as the sequence (P08922 1945-2222) above, with G88R counted along it
Procedure: as §1, §2

[2] = Ba/F3 stable cells, 72 hours, CellTiter-Glo; read-out: ETV6-TRKB IC50

ALK I1171N/D1203N, sequence (Q9UM73 1116-1392 I1171N/D1203N): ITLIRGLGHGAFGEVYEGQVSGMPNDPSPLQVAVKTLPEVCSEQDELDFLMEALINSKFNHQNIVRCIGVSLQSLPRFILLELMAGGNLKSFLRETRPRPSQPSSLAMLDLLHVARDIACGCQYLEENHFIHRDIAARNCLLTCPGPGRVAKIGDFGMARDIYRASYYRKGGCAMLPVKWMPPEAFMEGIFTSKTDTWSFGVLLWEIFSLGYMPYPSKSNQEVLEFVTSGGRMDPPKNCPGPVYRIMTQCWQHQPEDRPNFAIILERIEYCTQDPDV

| Structure (SMILES) | Ki (ALK I1171N/D1203N) [nM] | Ki (TRKB-wt) [nM] | IC50 (Ba/F3 EML4-ALK v1 I1171N) [nM] | ETV6-TRKB / EML4-ALK v1 I1171N (Ba/F3 EML4-ALK v1 I1171N) | IC50 [1] [nM] | ETV6-TRKB / EML4-ALK v1 I1171N/D1203N [1] | IC50 (Ba/F3 ETV6-TRKB; [2]) [nM] | Ki (ROS1) [nM] | Ki (ROS1-G2032R) [nM] | IC50 (Ba/F3 ETV6-TRKB; read-out: ETV6-TRKB IC50; Ba/F3 stable cells, 72 hours, CellTiter-Glo) [nM] |
| --- | --- | --- | --- | --- | --- | --- | --- | --- | --- | --- |
| Cc1ocnc1-c1nn(CC2CC2)c2c1Cc1cccnc1-c1ccc(F)cc1[C@@H](C)Oc1cc-2cnc1N [Example 3, (20R)-3-(cyclopropylmethyl)-17-fluoro-20-methyl-5-(5-methyl-1,3-oxazol-4-yl)-21-oxa-3,4,12,24-tetraazapentacyclo[20.3.1.0^2,^6.0^8,^13.0^14,^19]hexacosa-1(25),2(6),4,8(13),9,11,14,16,18,22(26),23-undecaen-23-amine] | < 50 | 50 to 500 | 0.1 to 50 | A (bin A for very high selectivity, ratio≥30-fold) | 0.1 to 50 | B (bin B for high selectivity, ratio≥10-fold but<30) | > 500 |  |  |  |
| CCn1nc(C#N)c2c1-c1cnc(N)c(c1)O[C@H](C)c1cc(F)ccc1-c1nn(C)cc1C2 [Example 4, (R)-22-amino-3-ethyl-16-fluoro-10-methyl-19-methyl-20-oxa-3,4,10,11,23-pentaazapentacyclo[19.3.1.0^2,^6.0^8,^12.0^13,^18]pentacosa-1(24),2(6),4,8,11,13,15,17,21(25),22-decaene-5-carbonitrile] |  |  | 50 to 500 | C (bin C for moderate selectivity, ratio≥1 but<10) | > 500 | D (bin D for low selectivity, ratio<1) | 50 to 500 | < 50 | < 50 |  |
| CCn1nc(C(N)=O)c2c1-c1cnc(N)c(c1)O[C@H](C)c1cc(F)ccc1-c1nn(C)cc1C2 [Example 5, (R)-22-amino-3-ethyl-16-fluoro-10-methyl-19-methyl-20-oxa-3,4,10,11,23-pentaazapentacyclo[19.3.1.0^2,6.0^8,12.0^13,18]pentacosa-1(24),2(6),4,8,11.13,15,17,21(25),22-decaene-5-carboxamide] | < 50 | < 50 | 0.1 to 50 | C (bin C for moderate selectivity, ratio≥1 but<10) | 50 to 500 | D (bin D for low selectivity, ratio<1) | 50 to 500 |  |  |  |
| C[C@H]1Oc2cc(cnc2N)-c2c(c(C(=O)N3CCC3)nn2CC2CC2)Cc2cn(C)nc2-c2ccc(F)cc21 [Example 9, {(R)-22-amino-3-(cyclopropylmethyl)-16-fluoro-10-methyl-19-methyl-20-oxa-3,4,10,11,23-pentaazapentacyclo[19.3.1.0^2,^6.0^8,^12.0^13,^18]pentacosa-1(24),2(6),4,8,11,13,15,17,21(25),22-decaen-5-yl}(1-azetidinyl)methanone] | < 50 | 50 to 500 |  |  | 50 to 500 | B (bin B for high selectivity, ratio≥10-fold but<30) | > 500 | < 50 | < 50 |  |
| C[C@H]1Oc2cc(cnc2N)-c2c(c(C(=O)N(C)C)nn2CC2CC2)Cc2cccnc2-c2ccc(F)cc21 [Example 10, N,N-dimethyl-(R)-23-amino-3-(cyclopropylmethyl)-17-fluoro-20-methyl-21-oxa-3,4,12,24-tetraazapentacyclo[20.3.1.0^2,^6.0^8,^13.0^14,^19]hexacosa-1(25),2(6),4,8(13),9,11,14,16,18,22(26),23-undecaene-5-carboxamide] | < 50 | 50 to 500 | 0.1 to 50 | A (bin A for very high selectivity, ratio≥30-fold) | 0.1 to 50 | A (bin A for very high selectivity, ratio≥30-fold) | > 500 |  |  |  |
| C[C@H]1Oc2cc(cnc2N)-c2c(CC3CC3)nn(C(=O)N(C)C)c2Cc2cccnc2-c2ccc(F)cc21 [Example 20, (R)-5-(N,N-dimethylcarbamoyl)-3-(cyclopropylmethyl)-17-fluoro-20-methyl-21-oxa-4,5,12,24-tetraazapentacyclo[20.3.1.0^2,^6.0^8,^13.0^14,^19]hexacosa-1(25),2(6),3,8(13),9,11,14,16,18,22(26),23-undecaen-23-ylamine] | < 50 | 50 to 500 | 0.1 to 50 | A (bin A for very high selectivity, ratio≥30-fold) | 0.1 to 50 | A (bin A for very high selectivity, ratio≥30-fold) |  |  |  | 50 to 500 |
| C[C@H]1Oc2cc(cnc2N)-c2c(c(C(=O)N(C)C)nn2CC2CC2)Cc2cn(C)nc2-c2c(F)cc(F)cc21 [Example 32, N,N-dimethyl-(R)-22-amino-3-(cyclopropylmethyl)-14,16-difluoro-10-methyl-19-methyl-20-oxa-3,4,10,11,23-pentaazapentacyclo[19.3.1.0^2,^6.0^8,^12.0^13,^18]pentacosa-1(24),2(6),4,8,11,13,15,17,21(25),22-decaene-5-carboxamide] | < 50 | ≥ 500 | 0.1 to 50 | A (bin A for very high selectivity, ratio≥30-fold) | 0.1 to 50 | A (bin A for very high selectivity, ratio≥30-fold) | > 500 |  |  |  |
| C[C@H]1Oc2cc(cnc2N)-c2c(c(C(=O)N(C)C)nn2C2CCC2)Cc2cn(C)nc2-c2ccc(F)cc21 [Example 35, N,N-dimethyl-(R)-22-amino-3-cyclobutyl-16-fluoro-10-methyl-19-methyl-20-oxa-3,4,10,11,23-pentaazapentacyclo[19.3.1.0^2,^6.0^8,^12.0^13,^18]pentacosa-1(24),2(6),4,8,11,13,15,17,21(25),22-decaene-5-carboxamide] | < 50 | 50 to 500 | 0.1 to 50 | A (bin A for very high selectivity, ratio≥30-fold) | 0.1 to 50 | A (bin A for very high selectivity, ratio≥30-fold) | > 500 |  |  |  |
| C[C@H]1Oc2cc(cnc2N)-c2c(c(C(=O)N(C)C)nn2CC2CC2)Cc2cccnc2-c2c(F)cc(F)cc21 [Example 45, N,N-dimethyl-(R)-23-amino-3-(cyclopropylmethyl)-15,17-difluoro-20-methyl-21-oxa-3,4,12,24-tetraazapentacyclo[20.3.1.0^2,^6.0^8,^13.0^14,^19]hexacosa-1(25),2(6),4,8(13),9,11,14,16, 18,22(26),23-undecaene-5-carboxamide] | < 50 | ≥ 500 | 50 to 500 | B (bin B for high selectivity, ratio≥10-fold but<30) | 0.1 to 50 | A (bin A for very high selectivity, ratio≥30-fold) | > 500 |  |  |  |
| C[C@H]1Oc2cc(cnc2N)-c2c(c(C#N)nn2CC2CC2)Cc2cccnc2-c2ccc(F)cc21 [Example 66, (R)-23-amino-3-(cyclopropylmethyl)-17-fluoro-20-methyl-21-oxa-3,4,12,24-tetraazapentacyclo[20.3.1.0^2,^6.0^8,^13.0^14,^19]hexacosa-1(25),2(6),4,8(13),9,11,14,16,18,22(26),23-undecaene-5-carbonitrile] |  |  | 50 to 500 |  | > 500 |  |  | < 50 | < 50 |  |
